In ChEMBL document CHEMBL5050843, “Amide substituted thiazoles as protein secretion inhibitors” (2019):

Key:
[1] = Inhibition of constitutively active VCAMss-Gluc secretion in human Flp-In-T-REx-293 cells measured by Gaussia luciferase reporter gene method; assay type: functional, cell-based
[2] = Inhibition of constitutively active PR1ss-Gluc secretion in human Flp-In-T-REx-293 cells measured by Gaussia luciferase reporter gene method; assay type: functional, cell-based

C#Cc1ccc2sc(C(=O)Nc3nc(C(C)(C)C)cs3)cc2c1
IC50 [1]: > 25 µM
IC50 [2]: > 25 µM

CC(C)(C)c1csc(NC(=O)CC2CCCCCC2)n1
IC50 [1]: 5.07 µM
IC50 [2]: > 25 µM

CC(C)(C)c1csc(NC(=O)CN2CCOCC2)n1
IC50 [1]: > 25 µM
IC50 [2]: > 25 µM

Cn1cc(CC(=O)Nc2nc(C(C)(C)C)cs2)c2ccccc21
IC50 [1]: 4.51 µM
IC50 [2]: > 25 µM

CC(C)(C)c1csc(NC(=O)c2cc3cc(-c4cccc(Cl)c4)ccc3s2)n1
IC50 [1]: 5.02 µM
IC50 [2]: > 25 µM

O=C(Cc1csc2ccc(Cl)cc12)Nc1nc(Cc2ccccc2)cs1
IC50 [1]: 19.9 µM
IC50 [2]: > 25 µM

Cc1cc(C(=O)Nc2nc(C3CC3)cs2)cs1
IC50 [1]: > 25 µM
IC50 [2]: > 25 µM

CCc1csc(NC(=O)c2csc(C)c2)n1
IC50 [1]: > 25 µM
IC50 [2]: > 25 µM

CC(C)(C)c1csc(NC(=O)Cc2cccs2)n1
IC50 [1]: 5.7 µM
IC50 [2]: > 80 µM

CC(C)(C)c1csc(NC(=O)C(Cc2ccccc2)c2csc3ccc(Cl)cc23)n1 (stereo unspecified)
IC50 [1]: 3.92 µM
IC50 [2]: > 25 µM

CC(C)(C)c1csc(NC(=O)c2cc3cc(Cl)ccc3s2)n1
IC50 [1]: 9.27 µM
IC50 [2]: > 25 µM

CC(C)c1cccc(C(=O)Nc2nc(C(C)(C)C)cs2)c1
IC50 [1]: > 25 µM
IC50 [2]: > 25 µM

CC(C)(C)c1csc(NC(=O)c2cc3ccccc3o2)n1
IC50 [1]: 23.8 µM
IC50 [2]: > 25 µM

CC(C)(C)c1csc(NC(=O)c2cccc(C(F)(F)F)c2)n1
IC50 [1]: 7.6 µM
IC50 [2]: > 80 µM

CC(C)(C)c1csc(NC(=O)CCc2ccccc2)n1
IC50 [1]: 17.4 µM
IC50 [2]: > 25 µM

CC#Cc1ccc2sc(C(=O)Nc3nc(C(C)(C)C)cs3)cc2c1
IC50 [1]: 4.97 µM
IC50 [2]: > 25 µM

CC(C)(C)c1csc(NC(=O)c2cc3c(Cl)cccc3s2)n1
IC50 [1]: 5.7 µM
IC50 [2]: > 25 µM

CC(C)(C)c1csc(NC(=O)C2CCCc3ccccc32)n1 (stereo unspecified)
IC50 [1]: > 25 µM
IC50 [2]: > 25 µM

Cc1ccc(CC(=O)Nc2nc(C(C)(C)C)cs2)c(C)c1
IC50 [1]: 7.45 µM
IC50 [2]: > 25 µM

CC(C)(C)c1csc(NC(=O)c2cc3cccc(Cl)c3s2)n1
IC50 [1]: 3.22 µM
IC50 [2]: > 25 µM

CC(C)(C)c1csc(NC(=O)Cc2cn(Cc3cccc(Cl)c3)c3ccc(Cl)cc23)n1
IC50 [1]: 0.464 µM
IC50 [2]: > 25 µM

CC(C)(C)c1csc(NC(=O)Cc2ccccc2Cl)n1
IC50 [1]: 18.4 µM
IC50 [2]: > 25 µM

Cc1cc(C(=O)Nc2nc(C(C)C)cs2)cs1
IC50 [1]: 22.8 µM

CC(C)(C)c1csc(NC(=O)Cc2cccc(C#N)c2)n1
IC50 [1]: 15.4 µM
IC50 [2]: > 25 µM

CC(C)(C)c1csc(NC(=O)CC2CCCc3ccccc32)n1 (stereo unspecified)
IC50 [1]: 9.01 µM
IC50 [2]: > 25 µM

CC(C)(C)c1csc(NC(=O)[C@@H]2CCCO2)n1
IC50 [1]: > 25 µM
IC50 [2]: > 25 µM

CC(C)(C)c1csc(NC(=O)Cn2ccc3ccccc32)n1
IC50 [1]: 8.75 µM
IC50 [2]: > 25 µM

CC(C)(C)c1csc(NC(=O)Cc2cn(C(=O)c3ccccc3)c3ccc(Cl)cc23)n1
IC50 [1]: 2.05 µM
IC50 [2]: > 25 µM

CC(C)(C)c1csc(NC(=O)Cc2cn(Cc3cccnc3)c3ccc(Cl)cc23)n1
IC50 [1]: 3.67 µM
IC50 [2]: > 25 µM

CC(C)(C)c1csc(NC(=O)Cc2cc(F)cc(Cl)c2)n1
IC50 [1]: 1.91 µM
IC50 [2]: > 25 µM

Cc1ccc(C(=O)Nc2nc(C(C)(C)C)cs2)s1
IC50 [1]: 7.65 µM
IC50 [2]: > 25 µM

CC(C)(C)c1csc(NC(=O)C2=CCCC2)n1
IC50 [1]: > 25 µM
IC50 [2]: > 25 µM

CC(C)(C)c1csc(NC(=O)c2ccc3[nH]ncc3c2)n1
IC50 [1]: 20.7 µM
IC50 [2]: > 25 µM

CC(C)(C)c1csc(NC(=O)c2ccc3ocnc3c2)n1
IC50 [1]: > 25 µM
IC50 [2]: > 25 µM

CC(C)(C)c1csc(NC(=O)Cc2cn(CC3CCCCC3)c3ccc(Cl)cc23)n1
IC50 [1]: 0.714 µM
IC50 [2]: > 25 µM

CC(C)(C)c1csc(NC(=O)c2csc3ccccc23)n1
IC50 [1]: 22.6 µM
IC50 [2]: > 25 µM

CC(C)(C)c1csc(NC(=O)Cc2csc3ccc(-c4ccccc4)cc23)n1
IC50 [1]: 4.57 µM
IC50 [2]: > 25 µM

CC(C)(C)c1csc(NC(=O)Cc2ccc(Cl)c(Cl)c2)n1
IC50 [1]: 2.64 µM
IC50 [2]: > 25 µM

CC(C)(C)c1csc(NC(=O)C(C)(C)C2CCCCC2)n1
IC50 [1]: 9.01 µM
IC50 [2]: > 25 µM

CCCc1ccc2sc(C(=O)Nc3nc(C(C)(C)C)cs3)cc2c1
IC50 [1]: 14.1 µM
IC50 [2]: > 25 µM

CC(C)(C)c1csc(NC(=O)c2cc3cc(C4=CCCCC4)ccc3s2)n1
IC50 [1]: 16.2 µM
IC50 [2]: > 25 µM

CC(C)(C)c1csc(NC(=O)C(C)(C)c2ccc(Cl)c(Cl)c2)n1
IC50 [1]: 6.49 µM
IC50 [2]: > 25 µM

CC(C)(C)c1csc(NC(=O)c2cccnn2)n1
IC50 [1]: > 25 µM
IC50 [2]: > 25 µM

CC(C)(C)c1csc(NC(=O)c2ncn[nH]2)n1
IC50 [1]: > 25 µM
IC50 [2]: > 25 µM

CC(C)(C)c1csc(NC(=O)c2ccc3c(c2)OCCN3)n1
IC50 [1]: > 25 µM
IC50 [2]: > 25 µM

CC(C)(C)c1nc(NC(=O)Cc2csc3ccc(Cl)cc23)sc1Cl
IC50 [1]: 11.8 µM
IC50 [2]: > 25 µM

CC(C)(C)c1csc(NC(=O)Cc2ccc3cn[nH]c3c2)n1
IC50 [1]: > 25 µM
IC50 [2]: > 25 µM

CC(C)(C)c1csc(NC(=O)c2scc3c2CCCC3)n1
IC50 [1]: > 25 µM
IC50 [2]: > 25 µM

CC(C)(C)c1csc(NC(=O)C2CCOCC2)n1
IC50 [1]: > 25 µM
IC50 [2]: > 25 µM

Cc1csc(C(=O)Nc2nc(C(C)(C)C)cs2)c1
IC50 [1]: 17.1 µM
IC50 [2]: > 25 µM

Cc1ccc(C(=O)Nc2nc(C(F)(F)F)cs2)s1
IC50 [1]: > 25 µM
IC50 [2]: > 25 µM

CC(C)(C)c1csc(NC(=O)Cc2cccc(C(F)(F)F)c2)n1
IC50 [1]: 6.81 µM
IC50 [2]: > 25 µM

Cn1c(C(=O)Nc2nc(C(C)(C)C)cs2)cc2ccccc21
IC50 [1]: 2.21 µM
IC50 [2]: > 25 µM

CC(C)(C)c1csc(NC(=O)Cc2cccc(S(C)(=O)=O)c2)n1
IC50 [1]: > 25 µM
IC50 [2]: > 25 µM

COCCC(C)(C)c1csc(NC(=O)Cc2csc3ccc(Cl)cc23)n1
IC50 [1]: > 25 µM
IC50 [2]: > 25 µM

CC(C)(C)c1csc(NC(=O)CC2CCCC2)n1
IC50 [1]: 9.82 µM
IC50 [2]: > 25 µM

CC(C)(C)c1csc(NC(=O)Cc2ccc3ccccc3c2)n1
IC50 [1]: 15 µM
IC50 [2]: > 25 µM

CC(C)(C)c1csc(NC(=O)C2CCOC2)n1 (stereo unspecified)
IC50 [1]: > 25 µM
IC50 [2]: > 25 µM

C[C@@H](C(=O)Nc1nc(C(C)(C)C)cs1)c1ccccc1
IC50 [1]: 11.1 µM
IC50 [2]: > 25 µM

CC(C(=O)Nc1nc(C(C)(C)C)cs1)c1csc2ccc(Cl)cc12 (stereo unspecified)
IC50 [1]: 3.21 µM
IC50 [2]: > 25 µM

CC(C)(C)c1csc(NC(=O)c2cc3cc(-c4cccnc4)ccc3s2)n1
IC50 [1]: > 25 µM
IC50 [2]: > 25 µM

CC(C)(C)c1csc(NC(=O)C2(c3cccc(Cl)c3)CCCC2)n1
IC50 [1]: 8.15 µM
IC50 [2]: > 25 µM

CC(C)(C)c1csc(NC(=O)c2ccnnc2)n1
IC50 [1]: > 25 µM
IC50 [2]: > 25 µM

CC(C)(C)c1csc(NC(=O)Cc2cc(Cl)cc(Cl)c2)n1
IC50 [1]: 1.69 µM
IC50 [2]: > 25 µM

CC(C)(C)c1csc(NC(=O)c2cc3ccc(Cl)cc3s2)n1
IC50 [1]: > 25 µM
IC50 [2]: > 25 µM

CC(C)(C)c1csc(NC(=O)C2(c3cccc(Cl)c3)CC2)n1
IC50 [1]: 19.6 µM
IC50 [2]: > 25 µM

CC(C)(C)c1csc(NC(=O)c2ccc3c(c2)CCCO3)n1
IC50 [1]: 6.09 µM
IC50 [2]: > 25 µM

CC1(c2csc(NC(=O)Cc3cn(Cc4ccccc4)c4ccc(Cl)cc34)n2)CC1
IC50 [1]: 0.908 µM
IC50 [2]: > 25 µM

Cc1cc(C(=O)Nc2nc(C(C)(C)C)cs2)sc1C
IC50 [1]: 9.08 µM
IC50 [2]: > 25 µM

CC(C)(C)c1csc(NC(=O)C2CCCC2)n1
IC50 [1]: 17 µM
IC50 [2]: > 25 µM

CC(C)(C)c1csc(NC(=O)CC2CCCCC2)n1
IC50 [1]: 6.09 µM
IC50 [2]: > 25 µM

CC(C)(C)c1csc(NC(=O)c2ccccc2Cl)n1
IC50 [1]: > 25 µM
IC50 [2]: > 25 µM

CC(C)(C)c1csc(NC(=O)c2cccc(CN3CCOCC3)c2)n1
IC50 [1]: > 25 µM
IC50 [2]: > 25 µM

CC(C)(C)c1csc(NC(=O)Cc2cn(Cc3ccc(Cl)cc3)c3ccc(Cl)cc23)n1
IC50 [1]: 0.325 µM
IC50 [2]: > 25 µM

CC(C)(C)c1csc(NC(=O)c2cc3cc(C(F)(F)F)ccc3s2)n1
IC50 [1]: 16.5 µM
IC50 [2]: > 25 µM

CC(C)(C)c1csc(NC(=O)c2cc3cc(C(N)=O)ccc3s2)n1
IC50 [1]: > 25 µM
IC50 [2]: > 25 µM

CC(C)(C)c1csc(NC(=O)c2cccc(Cl)c2)n1
IC50 [1]: 8.4 µM
IC50 [2]: > 25 µM

Cc1c(C(=O)Nc2nc(C(C)(C)C)cs2)sc2ccc(Cl)cc12
IC50 [1]: > 25 µM
IC50 [2]: > 25 µM

CC(C)(C)c1csc(NC(=O)C(C)(C)c2cccc(Cl)c2)n1
IC50 [1]: 8.6 µM
IC50 [2]: > 25 µM

CC(C)(C)c1csc(CNC(=O)Cc2csc3ccccc23)n1
IC50 [1]: > 25 µM
IC50 [2]: > 25 µM

CC(C)(C)c1csc(NC(=O)c2cc3cc(-c4ccc(Cl)cc4)ccc3s2)n1
IC50 [1]: 14 µM
IC50 [2]: > 25 µM

CC(C)(C)c1csc(NC(=O)C2CCc3ccccc3C2)n1 (stereo unspecified)
IC50 [1]: 11.8 µM
IC50 [2]: > 25 µM

CC(C)(C)c1csc(NC(=O)COC2CCCCC2)n1
IC50 [1]: > 25 µM
IC50 [2]: > 25 µM

CC(C)(C)c1csc(NC(=O)Cc2cccc(Br)c2)n1
IC50 [1]: 5.71 µM
IC50 [2]: > 25 µM

CC(C)(C)c1csc(NC(=O)c2ccc3cn[nH]c3c2)n1
IC50 [1]: > 25 µM
IC50 [2]: > 25 µM

CC(C)(C)c1csc(NC(=O)Cc2c[nH]c3ccccc23)n1
IC50 [1]: > 25 µM
IC50 [2]: > 25 µM

CC(C)(C)c1csc(NC(=O)c2sc3ccccc3c2Cl)n1
IC50 [1]: > 25 µM
IC50 [2]: > 25 µM

Cn1cc(C(=O)Nc2nc(C(C)(C)C)cs2)cn1
IC50 [1]: 22.2 µM

CC(C)(CCO)c1csc(NC(=O)Cc2csc3ccc(Cl)cc23)n1
IC50 [1]: > 25 µM
IC50 [2]: > 25 µM

COc1cccc(CC(=O)Nc2nc(C(C)(C)C)cs2)c1
IC50 [1]: 10.3 µM
IC50 [2]: > 25 µM

CC(C)(C)c1csc(NC(=O)c2cccc(N3CCCC3)c2)n1
IC50 [1]: > 25 µM
IC50 [2]: > 25 µM

CC(C)(C)c1csc(NC(=O)Cn2cnc3ccccc32)n1
IC50 [1]: > 25 µM
IC50 [2]: > 25 µM

CC(C)(C)c1csc(NC(=O)c2cc3ccccc3s2)n1
IC50 [1]: 4.93 µM
IC50 [2]: > 25 µM

CC(C)(C)c1csc(NC(=O)c2cccc(C#N)c2)n1
IC50 [1]: > 25 µM
IC50 [2]: > 25 µM
